Measurements from patent US7495027B2, “3-aryl-4-hydroxyfuranone compounds and the human and animal health use thereof” (Wyeth, priority 2003, dated 2009).
Converted amounts (≈) assume the structure as drawn. Read-outs that look alike come from different tables or passages of the source.

How the values were obtained:
[1] = molecular target: E. coli Enopyruvyl-UPD-N-acetylglucosamine reductase, Mur B (Escherichia coli, UniProt P08373); test: biochemical; settings: (E) E. coli enzyme; for IC50: read-out: MurB IC50 (converted)
[2] = molecular target: T1, S. aureus Enopyruvyl-UPD-N-acetylglucosamine reductase, Mur B (Staphylococcus aureus, UniProt P61431); test: biochemical
T1 sequence (P61431 1-307): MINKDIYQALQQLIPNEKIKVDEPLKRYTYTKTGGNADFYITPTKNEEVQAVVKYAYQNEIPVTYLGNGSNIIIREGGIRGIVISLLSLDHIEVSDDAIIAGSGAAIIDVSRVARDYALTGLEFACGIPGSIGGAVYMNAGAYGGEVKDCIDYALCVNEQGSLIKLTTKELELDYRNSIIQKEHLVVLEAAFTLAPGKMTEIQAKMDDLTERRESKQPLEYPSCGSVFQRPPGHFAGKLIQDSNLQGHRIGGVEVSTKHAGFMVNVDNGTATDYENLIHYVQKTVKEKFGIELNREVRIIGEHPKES

[3] = molecular target: T2, S. aureus Uridine-diphosphate-N-acetylmuramoyl-L-alanine: D-glutamate liease, MurD (Staphylococcus aureus, UniProt Q2FZ92); test: biochemical; settings: (S) S. aureus enzyme
T2 sequence (Q2FZ92 1-449): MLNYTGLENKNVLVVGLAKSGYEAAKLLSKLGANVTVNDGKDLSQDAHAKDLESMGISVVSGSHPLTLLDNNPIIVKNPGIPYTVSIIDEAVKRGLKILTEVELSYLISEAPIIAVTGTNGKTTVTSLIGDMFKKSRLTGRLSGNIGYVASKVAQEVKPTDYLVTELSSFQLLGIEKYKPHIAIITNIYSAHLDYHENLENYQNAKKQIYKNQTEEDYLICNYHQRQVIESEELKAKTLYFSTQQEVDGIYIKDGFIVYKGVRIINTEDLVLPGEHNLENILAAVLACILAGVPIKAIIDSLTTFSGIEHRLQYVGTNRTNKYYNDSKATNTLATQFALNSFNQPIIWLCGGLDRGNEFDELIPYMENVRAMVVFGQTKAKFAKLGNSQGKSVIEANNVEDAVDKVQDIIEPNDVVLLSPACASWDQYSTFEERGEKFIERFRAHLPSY
Method in brief: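 Test solutions, 10 mg/mL stocks in DMSO, were brought to 100 μg/mL with 50 mM Tris/HCl (pH 8.5). Their inhibition of MurD, the enzyme of the fourth cell wall biosynthesis step, was measured.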

enterococci = test: Minimum inhibitory concentration, microdilution broth method, enterococci; assay type: cell-based; settings: Mueller-Hinton broth, 18-22 hours at 35° C.; for MIC: Enterococcus faecalis
Method in brief: (§1)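 Recent clinical isolates, some resistant to methicillin, penicillin and/or vancomycin, were tested by the broth microdilution method of NCCLS Approved Standard M7-A5 2000. Mueller-Hinton broth served for staphylococci and enterococci, while streptococci received the same broth supplemented with 5% horse blood.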

Streptococci = test: Minimum inhibitory concentration, microdilution broth method, streptococci; assay type: cell-based; settings: Mueller-Hinton broth with 5% horse blood, 18-22 hours at 35° C.; for MIC: S. pneumo GC 1894
Method in brief: as §1

[4] = (S) S. aureus enzyme, read-out: MurB IC50 (converted)
[5] = E. faecalis GC 2242, read-out: MIC E. faecalis GC 2242
[6] = E. faecalis GC 4555, read-out: MIC E. faecalis GC 4555

Chain of E. coli Enopyruvyl-UPD-N-acetylglucosamine reductase, Mur B (P08373 whole entry): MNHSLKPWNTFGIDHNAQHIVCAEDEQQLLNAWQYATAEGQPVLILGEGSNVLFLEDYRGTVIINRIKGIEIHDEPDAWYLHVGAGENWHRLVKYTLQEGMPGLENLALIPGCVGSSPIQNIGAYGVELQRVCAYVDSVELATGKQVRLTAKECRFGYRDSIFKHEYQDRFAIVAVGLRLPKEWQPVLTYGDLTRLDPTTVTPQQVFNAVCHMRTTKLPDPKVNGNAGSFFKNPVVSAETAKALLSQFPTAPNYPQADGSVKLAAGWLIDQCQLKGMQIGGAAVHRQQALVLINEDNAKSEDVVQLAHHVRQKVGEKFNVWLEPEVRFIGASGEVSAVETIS

| Structure (SMILES) | IC50 [1] [µM] | IC50 [2, 4] [µM] | IC50 [3] [µM] | MIC (enterococci; [5]) [µg/mL] | MIC (enterococci; [6]) [µg/mL] | MIC (Streptococci) [µg/mL] | MurB IC50 [1] | MurB IC50 ([2]; (S) S. aureus enzyme) [µg/mL] | MurD IC50 [3] | MIC E. faecalis GC 2242 (enterococci; E. faecalis GC 2242) [µg/mL] | MIC E. faecalis GC 4555 (enterococci; E. faecalis GC 4555) [µg/mL] | MIC S. pneumo GC 1894 (Streptococci) [µg/mL] | IC50 [2] [µM] |
| --- | --- | --- | --- | --- | --- | --- | --- | --- | --- | --- | --- | --- | --- |
| O=C1O/C(=C\c2ccc(Cl)cc2)C(O)=C1c1ccc(-c2ccccc2)c(F)c1 [Example 138] | 56 | 7.64 | 35.6 | 4 (≈ 10.2 µM) | 8 (≈ 20.4 µM) | 0.5 (≈ 1.27 µM) | – | – | – | – | – | – | – |
| O=C1O/C(=C\c2ccccc2-c2cccc(Cl)c2)C(O)=C1c1cccc(Cl)c1 [Example 140] | 9.77 | 7.33 | 48.9 | 4 (≈ 9.77 µM) | 4 (≈ 9.77 µM) | 1 (≈ 2.44 µM) | – | – | – | – | – | – | – |
| O=C1O/C(=C\c2ccccc2-c2ccc(Cl)c(Cl)c2)C(O)=C1c1ccc(Cl)c(Cl)c1 [Example 141] | – | 4.18 | 6.27 | 0.5 (≈ 1.05 µM) | 1 (≈ 2.09 µM) | < 0.125 | 2 (E); 2 (S) μg/mL | – | – | – | – | – | – |
| O=C1O/C(=C\c2cc(C(F)(F)F)ccc2Cl)C(O)=C1c1ccc(N2CCOCC2)c(F)c1 [Example 142] | – | – | – | – | – | – | 10 µg/mL | 21 | >25 (S) μg/mL | >128 | >128 | 8 (≈ 17 µM) | – |
| O=C1O/C(=C\c2ccc(-c3ccccc3)cc2)C(O)=C1c1csc2ccccc12 [Example 143] | 17.7 | 10.1 | 25.2 | 4 (≈ 10.1 µM) | 32 (≈ 80.7 µM) | 1 (≈ 2.52 µM) | – | – | – | – | – | – | – |
| O=C1O/C(=C\c2ccc(-c3ccccc3)cc2)C(O)=C1c1cccs1 [Example 144] | 57.7 | 28.9 | 57.7 | 32 (≈ 92.4 µM) | > 128 | 2 (≈ 5.77 µM) | – | – | – | – | – | – | – |
| O=C1O/C(=C\c2cccc3ccccc23)C(O)=C1c1ccc(-c2ccccc2)cc1 [R=H, R1=4-biphenyl, R2=1-naphthyl] | 12.8 | – | 38.4 | 4 (≈ 10.2 µM) | 16 (≈ 41 µM) | 1 (≈ 2.56 µM) | – | – | – | – | – | – | 25.6 |
